Results as given in the NIST ThermoML archive (doi:10.1021/acs.jced.5b00849).
Where “and” joins values, the source holds several entries; their conditions need not be identical. Equal values may be shown once.

What was measured:
[1] = Boiling temperature at pressure P; conditions: Liquid, Ebulliometric method (Recirculating still)
[2] = Liquid, Ebulliometric method (Recirculating still)
[3] = refractive index (Na D-line) (dimensionless); conditions: 101 kPa, Liquid, Standard Abbe refractometry
[4] = refractive index (Na D-line) (dimensionless); xn = mol fraction of the nth substance listed; conditions: 101 kPa, Liquid, Standard Abbe refractometry

CO [methanol]
[1]
Conditions	Boiling temperature at pressure P [°C]
40 kPa	42.6
46.66 kPa	46
58.8 kPa	51.2
67.59 kPa	54.4
76.13 kPa	57.5

O [water]
Conditions	refractive index, 293.2 K	refractive index, 298.2 K	vapor or sublimation pressure, 319.6 K [kPa]	vapor or sublimation pressure, 354.8 K [kPa]	vapor or sublimation pressure, 373.2 K [kPa]
[2]	–	–	10.1	50.6	101.33
[3]	1.3332	1.3327	–	–	–

O [water] + CC1CCC(=O)O1
[4], x2 = 0
Conditions	refractive index
293.2 K	1.3332
298.2 K	1.3327

CC1CCC(=O)O1 (stereo not given) [γ-valerolactone]
Conditions	refractive index	vapor or sublimation pressure
[2], 347.1 K	–	0.67 kPa
[2], 356 K	–	1.33 kPa
[2], 370.4 K	–	2.67 kPa
[2], 384.5 K	–	5.07 kPa
[2], 401.4 K	–	10.1 kPa and 10.13 kPa
[2], 416.4 K	–	17.33 kPa
[2], 426.5 K	–	24 kPa
[2], 435.3 K	–	31.6 kPa
[2], 442.7 K	–	39.46 kPa
[2], 451.5 K	–	50.6 kPa and 50.66 kPa
[2], 459.2 K	–	62.26 kPa
[2], 465.3 K	–	73.06 kPa
[2], 469 K	–	80.53 kPa
[2], 477.8 K	–	101.19 kPa
[2], 480.2 K	–	101.33 kPa
[3], 293.2 K	1.4339	–
[3], 298.2 K	1.4316	–

CC1CCC(=O)O1 (stereo not given) [γ-valerolactone] + O
refractive index, [4]
Conditions	293.2 K	298.2 K
x1 = 0.0158	1.342	1.3411
x1 = 0.0318	1.3505	1.3499
x1 = 0.0532	1.3591	1.3585
x1 = 0.0789	1.3682	1.3671
x1 = 0.1066	1.3761	1.3751
x1 = 0.1405	1.3837	1.3826
x1 = 0.1855	1.3913	1.39
x1 = 0.2295	1.3987	1.397
x1 = 0.2964	1.4062	1.4046
x1 = 0.3833	1.4135	1.4119
x1 = 0.5097	1.4204	1.4186
x1 = 0.7092	1.4273	1.4259
x1 = 1	1.4339	1.4316
